# In publication PMC11239005, “Preclinical studies of RA475, a guanidine-substituted spirocyclic candidate RPN13/ADRM1 inhibitor for treatment of ovarian cancer” (PLOS ONE, 2024):
# Where “and” joins values, the source holds several entries; their conditions need not be identical. Identical values can stand only once. Like-named read-outs stand apart in the source and are kept apart here.
# Assays:
# TC1 = assay: MTT cytotoxicity assay, TC1; type: cell-based; conditions: TC-1, TC1, 72 h
# Procedure: (§1) All cell lines were obtained from the American Type Culture Collection (ATCC) and cultured in the specified medium supplemented with 10% fetal bovine serum, 100 IU/mL penicillin, and 100 μg/mL streptomycin at 37°C in a humidified 5% CO2/95% air incubator. Synthesis of new compounds is described in S1 File, and >95% purity of RA475, Up284 and its analogs were confirmed by NMR and MS. To assess drug cytotoxicity, cells were seeded at 2,500 cells/well (10,000 cells/well for MM lines) in 100 μL medium in 96-well plate as triplicates and after 24 h treated with compounds for a further 72 h. To assess cytotoxicity, the cells were incubated for 2 h at 37°C according to the manufacturer’s protocol with the Thiazolyl Blue Tetrazolium Bromide (20 μL/well of 5 mg/mL stock solution in water) (Sigma, M5655) and A570 measured using a Benchmark Plus microplate spectrophotometer (BIO-RAD). IC50 was estimated using Graphpad Prism 7 software.
# ID8VegF = assay: MTT cytotoxicity assay, ID8VegF; type: cell-based; conditions: 72 h
# Procedure: as §1
# LaPC4 = assay: MTT cytotoxicity assay, LaPC4; type: cell-based; conditions: Homo sapiens, LaPC4, 72 h
# Procedure: as §1
# SKOV3 = assay: MTT cytotoxicity assay, SKOV3; type: cell-based; conditions: Homo sapiens, SK-OV-3, SKOV3, 72 h
# Procedure: as §1
# DLD1 = assay: MTT cytotoxicity assay, DLD1; type: cell-based; conditions: Homo sapiens, DLD-1, DLD1, 72 h
# Procedure: as §1
# PEO23 = assay: MTT cytotoxicity assay, PEO23; type: cell-based; conditions: PEO23, 72 h
# Procedure: as §1
# HCC1395 = assay: MTT cytotoxicity assay, HCC1395; type: cell-based; conditions: Homo sapiens, HCC1395, 72 h
# Procedure: as §1
# TC1-Ova = assay: MTT cytotoxicity assay, TC1-Ova; type: cell-based; conditions: 72 h
# Procedure: as §1
# PACS = assay: MTT cytotoxicity assay, PACS; type: cell-based; conditions: 72 h
# Procedure: as §1
# MC38 = assay: MTT cytotoxicity assay, MC38; type: cell-based; conditions: Mus musculus, MC-38, MC38, 72 h
# Procedure: as §1
# CT26 = assay: MTT cytotoxicity assay, CT26; type: cell-based; conditions: Mus musculus, CT26, 72 h
# Procedure: as §1
# HT29 = assay: MTT cytotoxicity assay, HT29; type: cell-based; conditions: Homo sapiens, HT-29, HT29, 72 h
# Procedure: as §1
# PEA2 = assay: MTT cytotoxicity assay, PEA2; type: cell-based; conditions: Homo sapiens
# Procedure: as §1
# Modifications of Up284 were sought to improve its drug-like properties without significant compromise of its activity in vivo, and several new compounds were synthesized (S1 File). Based on our prior studies of its pharmacophore, the central ring nitrogen was the most logical for addition of charged moieties, including RA475 and RA484. We also examined a change to either 3,4 spiro rings (RA477, RA479), or addition of 3-Fluoro substitutions (RA482) (S1 File). Our focus is developing iRPN13 to treat ovarian cancer resistant to standard of care drug regimens.
# Calu-1 = assay: MTT cytotoxicity assay, Calu-1; type: cell-based; conditions: Homo sapiens, Calu-1, 72 h
# Procedure: as §1
# MCF7 = assay: MTT cytotoxicity assay, MCF7; type: cell-based; conditions: Homo sapiens, MCF7, 72 h
# Procedure: as §1
# [1] = LogD measurement, shake-flask octanol/PBS pH 7.4; type: physicochemical; conditions: for D: octanol/PBS pH 7.4, single injections 1-3; for LogD, pH 7.4: single injections 1-3
# Procedure: Incubations were carried out in Eppendorf-type polypropylene microtubes in triplicates. A 2.5 μL aliquot of 20 mM DMSO stock of a test compound was added into the previously mutually saturated mixture containing 500 μL of PBS (pH 7.4) and 500 μL of octanol. The solution was allowed to mix in a rotator for 1 hour at 30 rpm. Phase separation was assured by centrifugation for 2 min at 6000 rpm. The octanol phase was diluted 100-fold with 40% acetonitrile, and the aqueous phase (PBS buffer) was diluted 10-fold. The samples (both phases) were analyzed using an HPLC system coupled with a tandem mass spectrometer. […] Calculations of the partition ratios were carried out using the equation below. D=do.So/dp.Sp where:
# So–peak area of the analyte in octanol phase
# SP–peak area of the analyte in PBS buffer
# do–dilution coefficient for octanol phase
# [2] = Tissue distribution in CD1 mice; type: in vivo, mouse; conditions: 24 h; for Concentration in brain: one IV dose 40 mg/kg
# Procedure: For the stability studies and biodistribution studies, plasma or tissue homogenate (20 μL) was extracted with 100 μL of acetonitrile containing the internal standard RA413S (a structural analogue) at 10 ng/mL. Tissue homogenates were prepared at a concentration of 200 mg/mL in PBS. After vortex-mixing and centrifuging for 5 min at 2500 xg, 10 μL of the supernatant was injected into LC-MS/MS system. […] Mobile phase A was water containing 0.1% formic acid, and mobile phase B was acetonitrile containing 0.1% formic acid. The gradient started with mobile phase B at 20% and was held at 20% for 0.5 minutes with a flow rate of 0.3 mL/min, then increased to 100% over 0.5 minutes and held for 2.0 minutes, and finally returned back to 20% mobile phase B and allowed to equilibrate until 4.1minutes. An AB Sciex 5500 triple quadrupole mass spectrometer operated in positive electrospray ionization mode was used for the detection of RA475. The lower limit of quantitation (LLOQ) in plasma was 10 ng/mL.
# In a separate experiment to assess drug distribution, CD1 mice were injected with one dose of RA475 (40 mg/kg, IV) and tissues collected after 4 h and 24 h. RA475 levels were analyzed in all major tissues (brain, colon, heart, kidney, liver, lung and spleen) by LC-MS/MS.
# Fig 5 Tissue distribution of RA475 and Up284 in mice. Female CD1 mice (n = 3/drug) were treated with one IV dose of A) RA475 (40mg/kg) or B) Up284 (40mg/Kg) and euthanized after 24 h with collection of plasma and tissues including brain, colon, heart, kidney, liver, lung and spleen. RA475 and Up284 concentrations in tissue samples were analyzed by LC-MS/MS. TEXT PRINTED IN THE PICTURE: (A) RA475: RA475 Concentration (ng/mL or ng/g): 161 (Brain) | (B) Up284: Up284 Concentration (ng/mL or ng/g): 9214 (Brain)
Structure (SMILES),IC50 (TC1),IC50 (ID8VegF),IC50 (LaPC4),IC50 (SKOV3),IC50 (DLD1),IC50 (PEO23),IC50 (TC1-Ova),IC50 (PACS),IC50 (MC38),IC50 (CT26),IC50 (HT29),IC50 (Calu-1),IC50 (MCF7),D [1],"LogD, pH 7.4 [1]",Concentration in brain [2],also measured
"Cl.Cl.N#Cc1ccc(/C=C2/C(=O)/C(=C/c3ccc(C#N)cc3)C23CCN(C(=N)N)CC3)cc1 [RA475, 1,3-bis((E)-4-cyanobenzylidene)-2-oxo-7-azaspiro[3.5]nonane-7-carboximidamide dihydrochloride]",217 nM,1820 nM,2030 nM,294 nM,495 nM,297 nM,150 nM,581 nM,446 nM,630 nM,401 nM,241 nM,742 nM,3.84E+01 and 4.27E+01 and 3.16E+01,1.631 and 1.5,161 ng/mL or ng/g,"IC50 (HCC1395): 464 nM; IC50 (PEA2; 72 h): 356 nM; logD ([1]; pH 7.4, mean of three injections): 1.58; logD ([1]; pH 7.4, single injections 1-3): 1.58; tissue accumulation ([2]; 40 mg/kg IV): accumulated primarily in kidneys and liver"
"N#Cc1ccc(/C=C2/C(=O)/C(=C/c3ccc(C#N)cc3)C23CCNCC3)cc1 [Up284, reference compound]",140 nM,200 nM,510 nM,71 nM,110 nM,112 nM,90 nM,125 nM,60 nM,50 nM,43 nM,65 nM,690 nM,1.15E+02 and 1.32E+02 and 1.44E+02,2.158,9214 ng/mL or ng/g,"IC50 (HCC1395; MTT, read-out: IC50): 120 nM; IC50 (PEA2; PEA2, 72 h, MTT, read-out: IC50): 144 nM; logD ([1]; n-octanol/PBS, pH 7.4, mean of three injections): 2.12; logD ([1]; n-octanol/PBS, pH 7.4, single injections 1-3): 2.06"
